The values below come from patent US12600732B2, “Bifunctional compounds for degrading BTK via ubiquitin proteosome pathway” (NURIX THERAPEUTICS, INC., priority 2019, dated 2026).

Series [1] relates to B cell receptor (BCR) signaling. In words: B cell activation assay (flow cytometry), human B cells. The class given is cell-based. To be noted: treatment 4 h, IgM stimulation 18 h. On the procedure:
Compound was present throughout the stimulation. Cells were stained with Live/Dead dye (Fisher L34976) and then fluorophore-conjugated antibodies against CD20 (Biolegend 302330), CD3 (BD Pharmingen 557705), CD86 (Biolegend 305416) and CD69 (Biolegend 310906). Stained cells were fixed in PFA and run on an Attune N×T Acoustic Focusing Flow Cytometer (Thermo-Fisher A29004), and data was analyzed using FlowJo (v10.5.3) and GraphPad Prism (v7.00) software. Single live lymphocytes were gated for B cells (CD20+CD3−) and T cells (CD3+CD20−), and the geometric mean fluorescence intensity (MFI) of CD86 and CD69 was calculated for each population. The MFI of the unstimulated sample was used to quantify baseline activation.
This example evaluates whether CTM treatment affects B cell receptor (BCR) signaling. BTK is activated downstream of the B cell receptor and leads to upregulation of activation markers CD86 and CD69 on the surface of B cells.

Series [2] can be described thus: Compound plasma exposure in cyno DRF study. The class given is in vivo. The conditions noted are these: cynomolgus monkey, po. On the procedure: This example evaluates compound plasma concentration which results in in vivo BTK and/or Aiolos degradation in cyno. The data in the table below is from a study in which animals were dosed daily with the designated oral dose. Analysis for compound concentration in plasma was performed twenty-four hours following the previous dose.

Series [3] has as its target T1, BTK (Mus musculus, UniProt P35991).
T1 construct: from tissue; host or cells: mouse blood B cells / splenocytes (CD-1 or BALB/c)
In words: Mouse DRF PD, BTK remaining in B cells. The format is in vivo. To be noted: blood, 24 h after previous dose. As to the method:
A method of determining the pharmacodynamic profile of BTK degraders was performed by dosing either CD-1 or BALB/c mice with CTM. The CTM was prepared in a suitable formulation and was administered via oral gavage (PO) at a suitable dose level and frequency as informed by prior pharmacokinetic and tolerability studies. Following administration of CTM, BTK levels in blood or splenocytes are measured using flow cytometry or HTRF. For assessment of BTK levels via flow cytometry, either whole blood or splenocytes were first treated with ACK RBC lysis buffer to facilitate lysing of red blood cells. Remaining cells were then stained with fluorophore-conjugated antibodies against CD45, TCR beta and CD45R (B220). Cell pellets were washed with 1×PBS, fixed, and permeabilized for twenty-four hours with Foxp3/Transcription Factor Fixation/Permeabilization Kit. Cells were then stained intracellularly with unconjugated BTK antibody and detected with a fluorophore-conjugated secondary antibody. Stained cells were run on an Attune N×T Acoustic Focusing Flow Cytometer (Thermo-Fisher A29004), and data was analyzed using FlowJo (v10.5.3) and GraphPad Prism (v7.00) software. Lymphocytes were gated for B cells defined as CD45+ TCR beta−B220+ and T cells as CD45+ TCR beta+B220−. The BTK geometric mean fluorescence intensity (MFI) was calculated for B and T cells. Percent BTK degradation for each compound-treated sample was calculated using the equation described below: % Degradation=100*(Treated sample B cell BTK MFI-treated sample T cell BTK MFI)/Vehicle B cell BTK MFI-Vehicle T cell BTK MFI)
This example evaluates potency and tolerability of BTK CTMs following multiple, consecutive days of dosing and evaluates potency of compounds for BTK degradation.
The data in the table below is from a study in which animals were dosed daily with the designated oral dose. Analysis for BTK levels was performed twenty-four hours following the previous dose.

In series [4] the test system is CRBN neo-substrates. In words: CRBN neo-substrate levels / IMiD activity in MOLT4 and TMD8 cells (FIGS. 10-12). The format is cell-based. The conditions noted are these: for effect on CRBN neo-substrate levels in cells: MOLT4 and TMD8 cells, FIGS. 11A and 11B; for effects on CRBN neo-substrate levels: after twenty-four hours, TMD8 and/or MOLT4 cells, FIGS. 10A and 10B; for IMiD activity: FIG. 12. The source says:
FIGS. 10A and 10B provide effects of compounds 73, 72, 121, and 44, and control compounds, on neo-substrate and ITK or BTK levels after twenty-four hours in MOLT4 cells (FIG. 10A) and TMD8 cells (FIG. 10B).
FIGS. 11A and 11B provide effects of compounds 44, 72, and 149, and control compounds, on CRBN neo-substrate and ITK levels in MOLT4 cells (FIG. 11A) and TMD8 cells (FIG. 11B).
FIG. 12 provides effects of compounds 130, 149, and 44 on ITK levels and IMiD activity.

The target in series [5] is BTK C481S (Homo sapiens, UniProt Q06187, C481S). In words: BTK degradation (Total BTK HTRF) in TMD8 cells expressing BTK-C481S. The class given is cell-based. More on the design: endogenous in cells; host or cells: TMD8 BTK-C481S (clone2C3), Cas9 RNP knock-in. To be noted: TMD8 BTK-C481S (clone2C3) cells, treatment time 4 h. A digest of the protocol: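 DC50 values come from four-parameter regression of background-subtracted HTRF ratios (665/620 nm) normalized to DMSO controls. Total BTK was quantified in lysates of BTK-C481S-expressing TMD8 cells exposed to compound for four hours, using paired donor/acceptor anti-BTK antibodies.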
Background: Time-resolved FRET reads energy transfer from a long-lived donor to a nearby acceptor.

The mark [6] stands for this setting: 10 mg/kg, 10 mg/kg PO, 1 day of dosing.
The mark [7] stands for this setting: 10 mg/kg, 10 mg/kg PO, 14 days of dosing.
Where [8] appears, read: 30 mg/kg, 30 mg/kg PO, 1 day of dosing.
Where [9] appears, read: 30 mg/kg, 30 mg/kg PO, 14 days of dosing.
Setting [10] is: 100 mg/kg, 100 mg/kg PO, 1 day of dosing.
The mark [11] stands for this setting: 100 mg/kg, 100 mg/kg PO, 14 days of dosing.
Where [12] appears, read: 30 mg/kg PO daily, 1 day of dosing.
Where [13] appears, read: 30 mg/kg PO daily, 14 days of dosing.
Setting [14] is: 100 mg/kg PO daily, 1 day of dosing.
The mark [15] stands for this setting: 100 mg/kg PO daily, 14 days of dosing.
Where [16] appears, read: 300 mg/kg PO daily, 1 day of dosing.
[17] abbreviates: 300 mg/kg PO daily, 14 days of dosing.

The structures appear in SMILES notation. Like-named read-outs stand apart in the source and are kept apart here.

What is called EC50 is the concentration needed to bring the measured effect to its halfway point. Broadly, the Cmax is the maximum level reached in the sampled fluid or tissue. A word on the AUC: it is the area under the concentration-time curve, a measure of exposure. Low values mean low exposure, high ones high exposure. As a reminder, the DC50 is the concentration giving 50% degradation. A low value points to degradation at low concentration. Turning to `CN1CCN([C@@H]2CCCN(c3cnc(C(N)=O)c(Nc4ccc(C5CCN(C[C@H]6CCN(c7ccc8c(c7)C(=O)N(C7CCC(=O)NC7=O)C8=O)C6)CC5)cc4)n3)C2)C1=O` (stereo partly drawn) [Compound 44], the EC50 in series [1] (read-out: CD69 EC50) and in series [1] (read-out: CD86 EC50) was 0.5 nM throughout. The highest concentration (Cmax) amounted to 10.6 nM in series [2] (setting [6]); 34 nM in series [2] (setting [7]); 18 nM in series [2] (setting [8]); 55.5 nM in series [2] (setting [9]); 94.2 nM in series [2] (setting [11]). In addition, the figures for the exposure (AUC) in series [2] (setting [7]), in series [2] (setting [9]) and in series [2] (setting [10]) were 0.467 µM·h, 0.794 µM·h and 0.294 µM·h, respectively. The “% BTK Remaining in B cells” value in series [3] (setting [12]) is on record as 16%; in series [3] (setting [13]), 16%; in series [3] (setting [14]), 10%; in series [3] (setting [15]) it was 11%; in series [3] (setting [16]) it was 8%; in series [3] (setting [17]), 10%. Moreover, in series [4], the “effect on CRBN neo-substrate levels in cells” value is reported as “some effect”. Further, in series [4], the “effects on CRBN neo-substrate levels” value is on record as “some effects”. This molecule also yielded a 50% degradation concentration (DC50) in series [5] of 1.8 nM.
In the case of `CN1CCN([C@@H]2CCCN(c3cnc(C(N)=O)c(Nc4ccc(C5CCN(CC6CCN(c7ccc8c(=O)n(C9CCC(=O)NC9=O)ccc8c7)CC6)CC5)cc4)n3)C2)C1=O` (stereo partly drawn) [Compound 72], in series [4], the IMiD activity entry is given as “did not have IMiD activity” and the “effects on CRBN neo-substrate levels” value is listed as “does not effect”. The molecule further returned a DC50 in series [5] of 2 nM.
For the molecule `CN1CCN([C@@H]2CCCN(c3cnc(C(N)=O)c(Nc4ccc(C5CCN(CC6CCN(c7ccc(-c8nn(C9CCC(=O)NC9=O)c(=O)n8C)cc7)CC6)CC5)cc4)n3)C2)C1=O` (stereo partly drawn) [Compound 121], the “effects on CRBN neo-substrate levels” value in series [4] was “minimal effects”. Further, the half-maximal degradation concentration (DC50) in series [5] was 4.1 nM.
With `CN1CCN([C@H]2CCCN(c3cnc(C(N)=O)c(Nc4ccc(C5CCN(CC6CCN(c7ccc(C(=O)NC8CCC(=O)NC8=O)nc7)CC6)CC5)cc4)n3)C2)C1=O` (stereo partly drawn) [Compound 130], the results for the EC50 in series [1] (read-out: CD69 EC50) and in series [1] (read-out: CD86 EC50) were 0.4 nM and 0.5 nM, respectively. For the same molecule, the Cmax in series [2] (setting [6]) was found to be 20 nM; in series [2] (setting [7]), 28 nM; in series [2] (setting [8]), 55 nM; in series [2] (setting [9]) it was 54 nM; in series [2] (setting [11]), 177 nM. For the same molecule, the AUC in series [2] (setting [7]) was determined as 0.387 µM·h; in series [2] (setting [9]), 0.844 µM·h; in series [2] (setting [10]) it was 1.4 µM·h. Moreover, the “% BTK Remaining in B cells” value in series [3] (setting [12]) is 11%; in series [3] (setting [13]) it was 6%; in series [3] (setting [14]), 3%; in series [3] (setting [15]), 2%; in series [3] (setting [16]), 2%; in series [3] (setting [17]), under 1%. Moreover, in series [4], the IMiD activity entry is on record as “did not have IMiD activity”. The molecule further returned a half-maximal degradation concentration (DC50) in series [5] of 1.8 nM.
Consider `NC(=O)c1ncc(N2CCCCC2)nc1Nc1ccc(C2CCN(C[C@@H]3CCN(c4ccc5c(c4)C(=O)N(C4CCC(=O)NC4=O)C5=O)C3)CC2)cc1` (stereo partly drawn) [Compound 149], for which the EC50 was 4 nM in series [1] (read-out: CD69 EC50) and 5 nM in series [1] (read-out: CD86 EC50). Also, the highest concentration (Cmax) in series [2] (setting [6]) turned out to be 42 nM; in series [2] (setting [7]) it was 49 nM; in series [2] (setting [8]), 51 nM; in series [2] (setting [9]) it was 88 nM; in series [2] (setting [11]), 159 nM. Also, the exposure (AUC) in series [2] (setting [7]) came out at 0.763 µM·h; in series [2] (setting [9]), 1.48 µM·h; in series [2] (setting [10]), 0.714 µM·h. In addition, the “% BTK Remaining in B cells” value in series [3] (setting [12]) was found to be 11%; in series [3] (setting [13]), 8%; in series [3] (setting [14]), 10%; in series [3] (setting [15]), 5%; in series [3] (setting [16]), 6%; in series [3] (setting [17]), 2%. Further, the “effect on CRBN neo-substrate levels in cells” value in series [4] is reported as “some effect”. The molecule also gave a DC50 in series [5] of 14.4 nM.
